# Patent US20060069132A1, “Azolecarboxamide herbicides” (priority 2004, published 2006)
# Experiments:
# Assay in all cases: Test E pre-/postemergence herbicide test
# mustard = type: in vivo, Brassica nigra
# Procedure, shortened: (§1)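 Test chemicals in a non-phytotoxic solvent mixture with surfactant applied preemergence to planted seeds and postemergence to plants 2 to 18 cm tall (1- to 4-leaf stage). After 12 to 14 days in the greenhouse, injury rated visually against untreated controls on a 0–100 scale (0 no effect, 100 complete control).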
# goosegrass = type: in vivo, Eleusine indica
# Procedure, shortened: as §1
# purple nutsedge = type: in vivo, Cyperus rotundus
# Procedure, shortened: as §1
# itchgrass = type: in vivo, Rottboellia cochinchinensis
# Procedure, shortened: as §1
# large crabgrass = type: in vivo, Digitaria sanguinalis
# Procedure, shortened: as §1
# Surinam grass = type: in vivo, Urochloa decumbens
# Procedure, shortened: as §1
# prickly sida = type: in vivo, Sida spinosa
# Source text: Seeds of plant species selected from bipinnate beggarticks (Bidens bipinnata L.), hairy beggarticks (Bidens radiata Thuill.), bermudagrass (Cynodon dactylon (L.) Pers.), Surinam grass (Urochloa decumbens (Staph) R. D. Webster, previously named Brachiaria decumbens Stapf), large crabgrass (Digitaria sanguinalis (L.) Scop.), green foxtail (Setaria viridis (L.) P. Beauv.), goosegrass (Eleusine indica (L.) Gaertn.), johnsongrass (Sorghum halepense (L.) Pers.), kochia (Kochia scoparia (L.) Schrad.), pitted morningglory (Ipomoea lacunosa L.), purple nutsedge (Cyperus rotundus L.), common ragweed (Ambrosia elatior L.), mustard (Brassica nigra (L.) W. D. J. Koch), guineagrass (Panicum maximum Jacq.), dallisgrass (Paspalum dilatatum Poir.), barnyardgrass (Echinochloa crus-galli (L). P. Beauv.), southern sandbur (Cenchrus echinatus L.), common sowthistle (Sonchus oleraceous L.), prickly sida (Sida spinosa L.), Italian ryegrass (Lolium multiflorum Lam.), common purslane (Portulaca oleracea L.), broadleaf signalgrass (Brachiaria platyphylla (Griseb.) Nash), common groundsel (Senecio vulgaris L.), common chickweed (Stellaria media (L.) Vill/Cyr.), tropical spiderwort (Commelina benghalensis L.), annual bluegrass (Poa annua L.), downy bromegrass (Bromus tectorum L.), itchgrass (Rottboellia cochinchinensis (L.) L.f.), quackgrass (Elytrigia repens (L.) Nevski), Canada horseweed (Erigeron Canadensis L.), field bindweed (Convolvulus arvensis L.), spotted spurge (Euphorbia maculata L.), common mallow (Malva sylvestris (=s silvestris) L.), and Russian thistle (Salsola kali L. ssp. Ruthenica (Iljin) Soo) were planted and treated preemergence with test chemicals formulated in a non-phytotoxic solvent mixture which included a surfactant.
# At the same time, plants selected from these weed species were treated with postemergence applications of some of the test chemicals formulated in the same manner. Plants ranged in height from 2 to 18 cm (1- to 4-leaf stage) for postemergence treatments. Treated plants and controls were maintained in a greenhouse for 12 to 14 days, after which time all species were compared to controls and visually evaluated. Plant response ratings, summarized in Table E, are based on a scale of 0 to 100 where 0 is no effect and 100 is complete control. A dash (-) response means no test result.
# common purslane = type: in vivo, Portulaca oleracea; conditions: Preemergence
# Procedure, shortened: as §1
# common groundsel = type: in vivo, Senecio vulgaris
# Procedure, shortened: as §1
# [1] = Postemergence, 500 g ai/ha, scale 0 to 100
# [2] = Postemergence, 250 g ai/ha, scale 0 to 100
# [3] = Preemergence, 62 g ai/ha, scale 0 to 100
# [4] = Preemergence, 125 g ai/ha, scale 0 to 100
# [5] = Preemergence, 250 g ai/ha, scale 0 (no effect) to 100 (complete control)
# [6] = Preemergence, 500 g ai/ha, scale 0 (no effect) to 100 (complete control)
# [7] = postemergence, 125 g ai/ha, scale 0 to 100
# [8] = 250 g ai/ha, scale 0 (no effect) to 100 (complete control)
# [9] = 500 g ai/ha, scale 0 (no effect) to 100 (complete control)
smiles,measurement,setting,value
CCNC(=O)c1ccnc(NC(=O)c2cc(C(C)(C)C)nn2CC)c1 [Compound 152],"Plant response rating, Black Mustard",mustard; [1],100
same,"Plant response rating, Black Mustard",mustard; [2],100
same,"Plant response rating, Black Mustard",mustard; [3],90
same,"Plant response rating, Black Mustard",mustard; [4],90
same,"Plant response rating, Black Mustard",mustard; [5],95
same,"Plant response rating, Black Mustard",mustard; [6],100
same,"Plant response rating, Goosegrass",goosegrass; [1],75
same,"Plant response rating, Goosegrass",goosegrass; [2],60
same,"Plant response rating, Goosegrass",goosegrass; [3],30
same,"Plant response rating, Goosegrass",goosegrass; [4],70
same,"Plant response rating, Goosegrass",goosegrass; [5],80
same,"Plant response rating, Goosegrass",goosegrass; [6],90
same,"Plant response rating, Goosegrass",goosegrass; [7],50
same,"Plant response rating, Nutsedge, Purple",purple nutsedge; [1],75
same,"Plant response rating, Nutsedge, Purple",purple nutsedge; [2],60
same,"Plant response rating, Nutsedge, Purple",purple nutsedge; [3],0
same,"Plant response rating, Nutsedge, Purple",purple nutsedge; [4],20
same,"Plant response rating, Nutsedge, Purple",purple nutsedge; [5],50
same,"Plant response rating, Nutsedge, Purple",purple nutsedge; [6],60
same,"Plant response rating, Nutsedge, Purple",purple nutsedge; [7],30
same,"Plant response rating, Itchgrass",itchgrass; [1],75
same,"Plant response rating, Itchgrass",itchgrass; [2],75
same,"Plant response rating, Itchgrass",itchgrass; [3],20
same,"Plant response rating, Itchgrass",itchgrass; [4],60
same,"Plant response rating, Itchgrass",itchgrass; [5],75
same,"Plant response rating, Itchgrass",itchgrass; [6],80
same,"Plant response rating, Itchgrass",itchgrass; [7],60
same,"Plant response rating, Crabgrass, Large",large crabgrass; [1],80
same,"Plant response rating, Crabgrass, Large",large crabgrass; [2],75
same,"Plant response rating, Crabgrass, Large",large crabgrass; [3],40
same,"Plant response rating, Crabgrass, Large",large crabgrass; [4],70
same,"Plant response rating, Crabgrass, Large",large crabgrass; [5],100
same,"Plant response rating, Crabgrass, Large",large crabgrass; [6],100
same,"Plant response rating, Crabgrass, Large",large crabgrass; [7],60
same,"Plant response rating, Surinam Grass",Surinam grass; [1],80
same,"Plant response rating, Surinam Grass",Surinam grass; [2],60
same,"Plant response rating, Surinam Grass",Surinam grass; [3],20
same,"Plant response rating, Surinam Grass",Surinam grass; [4],50
same,"Plant response rating, Surinam Grass",Surinam grass; [6],80
same,"Plant response rating, Surinam Grass",Surinam grass; [7],30
same,"Plant response rating, Prickly Sida",prickly sida; [1],85
same,"Plant response rating, Prickly Sida",prickly sida; [2],60
same,"Plant response rating, Prickly Sida",prickly sida; [3],20
same,"Plant response rating, Prickly Sida",prickly sida; [4],20
same,"Plant response rating, Prickly Sida",prickly sida; [5],60
same,"Plant response rating, Prickly Sida",prickly sida; [6],95
same,"Plant response rating, Purslane","common purslane; 62 g ai/ha, scale 0 to 100",0
same,"Plant response rating, Purslane","common purslane; 125 g ai/ha, scale 0 to 100",0
same,"Plant response rating, Purslane",common purslane; [8],50
same,"Plant response rating, Purslane",common purslane; [9],100
same,"Plant response rating, Groundsel",common groundsel; [1],95
same,"Plant response rating, Groundsel",common groundsel; [2],95
same,"Plant response rating, Groundsel",common groundsel; [3],95
same,"Plant response rating, Groundsel",common groundsel; [4],100
same,"Plant response rating, Groundsel",common groundsel; [5],100
same,"Plant response rating, Groundsel",common groundsel; [6],100
same,"Plant response rating, Groundsel",common groundsel; [7],90
CCc1nn(C(C)(C)CC)nc1C(=O)Nc1cccc(C(=O)N(C)C)c1 [Compound 372],"Plant response rating, Black Mustard",mustard; [3],100
same,"Plant response rating, Black Mustard",mustard; [4],100
same,"Plant response rating, Black Mustard",mustard; [5],100
same,"Plant response rating, Black Mustard",mustard; [6],100
same,"Plant response rating, Goosegrass",goosegrass; [3],40
same,"Plant response rating, Goosegrass",goosegrass; [4],40
same,"Plant response rating, Goosegrass",goosegrass; [5],50
same,"Plant response rating, Goosegrass",goosegrass; [6],75
same,"Plant response rating, Nutsedge, Purple",purple nutsedge; [3],30
same,"Plant response rating, Nutsedge, Purple",purple nutsedge; [5],50
same,"Plant response rating, Nutsedge, Purple",purple nutsedge; [6],100
same,"Plant response rating, Itchgrass",itchgrass; [3],30
same,"Plant response rating, Itchgrass",itchgrass; [4],60
same,"Plant response rating, Itchgrass",itchgrass; [5],60
same,"Plant response rating, Itchgrass",itchgrass; [6],80
same,"Plant response rating, Crabgrass, Large",large crabgrass; [3],10
same,"Plant response rating, Crabgrass, Large",large crabgrass; [4],50
same,"Plant response rating, Crabgrass, Large",large crabgrass; [5],70
same,"Plant response rating, Crabgrass, Large",large crabgrass; [6],100
same,"Plant response rating, Surinam Grass",Surinam grass; [4],40
same,"Plant response rating, Surinam Grass",Surinam grass; [6],75
same,"Plant response rating, Prickly Sida",prickly sida; [3],20
same,"Plant response rating, Prickly Sida",prickly sida; [5],95
same,"Plant response rating, Prickly Sida",prickly sida; [6],95
same,"Plant response rating, Purslane","common purslane; 62 g ai/ha, scale 0 to 100",10
same,"Plant response rating, Purslane","common purslane; 125 g ai/ha, scale 0 to 100",40
same,"Plant response rating, Purslane",common purslane; [8],50
same,"Plant response rating, Purslane",common purslane; [9],100
same,"Plant response rating, Groundsel",common groundsel; [3],20
same,"Plant response rating, Groundsel",common groundsel; [4],70
same,"Plant response rating, Groundsel",common groundsel; [5],70
same,"Plant response rating, Groundsel",common groundsel; [6],95
